Structures can show the parent of a compound that is named as a salt.
How the values were obtained:
Type in all cases: functional
SF-295 = assay: Growth inhibition of Homo sapiens (human) SF295 cells at 10^-5 M after 48 hr by SRB assay; conditions: SF-295, 48 h, read-out: GI
PC-3 = assay: Growth inhibition of Homo sapiens (human) PC3 cells at 10^-5 M after 48 hr by SRB assay; conditions: PC-3, 48 h, read-out: GI
MCF7 = assay: Growth inhibition of Homo sapiens (human) MCF7 cells at 10^-5 M after 48 hr by SRB assay; conditions: MCF7, 48 h, read-out: GI
HOP-62 = assay: Growth inhibition of Homo sapiens (human) HOP62 cells at 10^-5 M after 48 hr by SRB assay; conditions: HOP-62, 48 h, read-out: GI
IGROV-1 = assay: Growth inhibition of Homo sapiens (human) IGROV1 cells at 10^-5 M after 48 hr by SRB assay; conditions: IGROV-1, 48 h, read-out: GI
A549 = assay: Growth inhibition of Homo sapiens (human) A549 cells at 10^-5 M after 48 hr by SRB assay; conditions: A549, 48 h, read-out: GI
Rattus norvegicus = assay: Anti-inflammatory activity in Rattus norvegicus Charles Foster albino (rat) assessed as inhibition of carrageenan-induced paw edema at 50 mg/kg, po administered 30 min prior to carrageenan-challenge measured up to 3 hr relative to control; design: scale not given: the % may be the effect or the level left

SMILES	inhibition of growth at 10 µM (SF-295)	inhibition of growth at 10 µM (PC-3)	inhibition of growth at 10 µM (MCF7)	inhibition of growth at 10 µM (HOP-62)	inhibition of growth at 10 µM (IGROV-1)	inhibition of growth at 10 µM (A549)	Activity (Rattus norvegicus)
c1ccc2cc(-c3nc4cc5nc6ccccc6nc5cc4[nH]3)ccc2c1	20%	22%	29%	9%	19%	26%	28%
Cc1ccsc1/C=N\C(=N)Nc1nc2ccccc2[nH]1	40%	10%	9%	13%	17%	3%	38%
Cc1ccsc1-c1nc2ccc3c(c2[nH]1)C(=O)c1ccccc1C3=O	30%	16%	36%	19%	6%	15%	16%
N=C(/N=C/c1cccc2ccccc12)Nc1nc2ccccc2[nH]1	40%	13%	25%	26%	13%	9%	34%
Cc1ccsc1-c1nc2cc3nc4ccccc4nc3cc2[nH]1	28%	12%	17%	4%	30%	27%	38%
Cc1ccc(-c2nc3ccc4c(c3[nH]2)C(=O)c2ccccc2C4=O)s1	43%	14%	47%	6%	8%	35%	26%
Cn1cccc1-c1nc2ccc3c(c2[nH]1)C(=O)c1ccccc1C3=O	52%	28%	72%	11%	27%	31%	34%
CO[C@@]12[C@H](COC(N)=O)C3=C(C(=O)C(C)=C(N)C3=O)N1C[C@@H]1N[C@@H]12 [MITOMYCIN]	43%	61%	–	–	47%	–	–
N=C(/N=C/c1c(O)ccc2ccccc12)Nc1nc2ccccc2[nH]1	34%	15%	4%	9%	23%	2%	0%
O=C1c2ccccc2C(=O)c2c1ccc1nc(-c3ccc4ccccc4c3)[nH]c21	34%	15%	26%	9%	9%	2%	35%
Cc1ccc(-c2nc3cc4nc5ccccc5nc4cc3[nH]2)s1	32%	29%	56%	20%	18%	53%	10%
O=C1c2ccccc2C(=O)c2c1ccc1nc(-c3cccc4ccccc34)[nH]c21	81%	71%	76%	61%	71%	93%	14%
Cc1ccc(/C=N\C(=N)Nc2nc3ccccc3[nH]2)s1	36%	8%	0%	14%	20%	13%	24%
CC(=O)O[C@H]1C(=O)[C@@]2(C)[C@H]([C@H](OC(=O)c3ccccc3)[C@]3(O)C[C@H](OC(=O)[C@H](O)[C@@H](NC(=O)c4ccccc4)c4ccccc4)C(C)=C1C3(C)C)[C@]1(OC(C)=O)CO[C@@H]1C[C@@H]2O [PACLITAXEL]	–	–	–	37%	37%	54%	–
Oc1ccc2ccccc2c1-c1nc2cc3nc4ccccc4nc3cc2[nH]1	97%	81%	84%	90%	84%	87%	30%
Cn1cccc1/C=N/C(=N)Nc1nc2ccccc2[nH]1	40%	1%	24%	28%	23%	12%	0%
N=C(/N=C\c1ccc2ccccc2c1)Nc1nc2ccccc2[nH]1	42%	10%	6%	18%	26%	8%	26%
Cn1cccc1-c1nc2cc3nc4ccccc4nc3cc2[nH]1	40%	43%	41%	12%	26%	36%	14%
COc1cccc2c1C(=O)c1c(O)c3c(c(O)c1C2=O)C[C@@](O)(C(=O)CO)C[C@@H]3O[C@H]1C[C@H](N)[C@H](O)[C@H](C)O1 [DOXORUBICIN HYDROCHLORIDE]	69%	–	72%	32%	39%	27%	–
O=C1c2ccccc2C(=O)c2c1ccc1nc(-c3c(O)ccc4ccccc34)[nH]c21	92%	87%	61%	78%	82%	97%	22%
c1ccc2c(-c3nc4cc5nc6ccccc6nc5cc4[nH]3)cccc2c1	100%	97%	88%	98%	92%	97%	19%

— ChEMBL document CHEMBL3046918, “Conventional and microwave-assisted synthesis of imidazole and guanidine derivatives and their biological evaluation” (2011)
